{
  "source": "patent US9499550B2",
  "about": "(BRISTOL-MYERS SQUIBB COMPANY, priority 2012, dated 2016)",
  "key": {"[1]": {"system": "HCV genotype 1b (Con1) replicon in HUH-7 cells", "assay": "HCV replicon luciferase reporter assay, genotype 1b", "type": "cell-based", "details": "Hepatitis C virus, Huh-7, 72 h, HCV genotype 1b replicon luciferase assay, 3 days incubation, range class, read-out: LE_1b (EC50, range)", "summary_of_the_method": "(§1)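 Replicon inhibition for both genotypes was measured as Renilla luciferase signal (EnduRen, 7.5 μM final, 2 h) after 3-day, 37° C exposure of replicon-bearing HUH-7 cells in 4% FCS DMEM, 0.5% DMSO. The 1b construct carries S1179I; the 1a H77 construct carries P1496L and S2204I. Twenty-point, 3-fold dilutions were fitted four-parametrically for EC50, and CC50 was taken from multiplexed Cell Titer-Blue.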"}, "[2]": {"system": "HCV genotype 1a (H77 strain) replicon in HUH-7 cells", "assay": "HCV replicon luciferase reporter assay, genotype 1a", "type": "cell-based", "details": "Hepatitis C virus, Huh-7, 72 h, HCV genotype 1a replicon luciferase assay, 3 days incubation, range class, read-out: LE_1a (EC50, range)", "summary_of_the_method": "as §1"}},
  "data": [
    {"smiles": "COc1cnc(O[C@@H]2C[C@H]3C(=O)N[C@]4(C(=O)NS(=O)(=O)C5(CF)CC5)C[C@H]4/C=C\\CC[C@H](C)C[C@@H](C)[C@H](NC(=O)OC(C)(C)CC(F)(F)F)C(=O)N3C2)c2ccccc12", "note": "[Compound 1061, 4,4,4-trifluoro-2-methylbutan-2-yl((2R,6S,7R,9S,13aS,14aR,16aS,Z)-14a-(((1-(fluoromethyl)cyclopropyl)sulfonyl)carbamoyl)-2-((4-methoxyisoquinolin-1-yl)oxy)-7,9-dimethyl-5,16-dioxo-1,2,3,5,6,7,8,9,10,11,13a,14,14a,15,16,16a-hexadecahydrocyclopropa[e]pyrrolo[1,2-a][1,4]diazacyclopentadecin-6-yl)carbamate]", "values": [
      {"measurement": "EC50", "setting": "[1]", "result": "4.82 to 103", "unit": "nM"},
      {"measurement": "EC50", "setting": "[2]", "result": "4.82 to 103", "unit": "nM"}
    ]},
    {"smiles": "COc1cnc(O[C@@H]2C[C@H]3C(=O)N[C@]4(C(=O)NS(=O)(=O)C5(CF)CC5)C[C@H]4/C=C\\CC[C@@H](C)C[C@@H](C)[C@H](NC(=O)OC(C)(C)CC(F)(F)F)C(=O)N3C2)c2ccccc12", "note": "[Compound 1062, 4,4,4-trifluoro-2-methylbutan-2-yl((2R,6S,7R,9R,13aS,14aR,16aS,Z)-14a-(((1-(fluoromethyl)cyclopropyl)sulfonyl)carbamoyl)-2-((4-methoxyisoquinolin-1-yl)oxy)-7,9-dimethyl-5,16-dioxo-1,2,3,5,6,7,8,9,10,11,13a,14,14a,15,16,16a-hexadecahydrocyclopropa[e]pyrrolo[1,2-a][1,4]diazacyclopentadecin-6-yl)carbamate]", "values": [
      {"measurement": "EC50", "setting": "[1]", "result": "< 5.46", "unit": "nM"},
      {"measurement": "EC50", "setting": "[2]", "result": "< 5.46", "unit": "nM"}
    ]},
    {"smiles": "COc1cnc(O[C@@H]2C[C@H]3C(=O)N[C@]4(C(=O)NS(=O)(=O)C5(CF)CC5)C[C@H]4/C=C\\CC[C@H](C)C[C@@H](C)[C@H](NC(=O)OC4(C)CCOC4)C(=O)N3C2)c2ccccc12", "note": "(stereo partly drawn) [Compound 1063, 3-methyltetrahydrofuran-3-yl ((2R,6S,7R,9S,13aS,14aR,16aS,Z)-14a-(((1-(fluoromethyl)cyclopropyl)sulfonyl)carbamoyl)-2-((4-methoxyisoquinolin-1-yl)oxy)-7,9-dimethyl-5,16-dioxo-1,2,3,5,6,7,8,9,10,11,13a,14,14a,15,16,16a-hexadecahydrocyclopropa[e]pyrrolo[1,2-a][1,4]diazacyclopentadecin-6-yl)carbamate]", "values": [
      {"measurement": "EC50", "setting": "[1]", "result": "< 5.46", "unit": "nM"},
      {"measurement": "EC50", "setting": "[2]", "result": "4.82 to 103", "unit": "nM"}
    ]},
    {"smiles": "COc1cnc(O[C@@H]2C[C@H]3C(=O)N[C@]4(C(=O)NS(=O)(=O)C5(CF)CC5)C[C@H]4/C=C\\CC[C@@H](C)C[C@@H](C)[C@H](NC(=O)OC4(C)CCOC4)C(=O)N3C2)c2ccccc12", "note": "(stereo partly drawn) [Compound 1064, 3-methyltetrahydrofuran-3-yl ((2R,6S,7R,9R,13aS,14aR,16aS,Z)-14a-(((1-(fluoromethyl)cyclopropyl)sulfonyl)carbamoyl)-2-((4-methoxyisoquinolin-1-yl)oxy)-7,9-dimethyl-5,16-dioxo-1,2,3,5,6,7,8,9,10,11,13a,14,14a,15,16,16a-hexadecahydrocyclopropa[e]pyrrolo[1,2-a][1,4]diazacyclopentadecin-6-yl)carbamate]", "values": [
      {"measurement": "EC50", "setting": "[1]", "result": "< 5.46", "unit": "nM"},
      {"measurement": "EC50", "setting": "[2]", "result": "< 5.46", "unit": "nM"}
    ]},
    {"smiles": "COc1cnc(O[C@@H]2C[C@H]3C(=O)N[C@]4(C(=O)NS(=O)(=O)C5(CF)CC5)C[C@H]4/C=C\\CC[C@H](C)C[C@@H](C)[C@H](NC(=O)OC4(C(F)(F)F)CCOC4)C(=O)N3C2)c2ccccc12", "note": "(stereo partly drawn) [Compound 1065, 3-(trifluoromethyl)tetrahydrofuran-3-yl((2R,6S,7R,9S,13aS,14aR,16aS,Z)-14a-(((1-(fluoromethyl)cyclopropyl)sulfonyl)carbamoyl)-2-((4-methoxyisoquinolin-1-yl)oxy)-7,9-dimethyl-5,16-dioxo-1,2,3,5,6,7,8,9,10,11,13a,14,14a,15,16,16a-hexadecahydrocyclopropa[e]pyrrolo[1,2-a][1,4]diazacyclopentadecin-6-yl)carbamate]", "values": [
      {"measurement": "EC50", "setting": "[1]", "result": "< 5.46", "unit": "nM"},
      {"measurement": "EC50", "setting": "[2]", "result": "4.82 to 103", "unit": "nM"}
    ]},
    {"smiles": "COc1cnc(O[C@@H]2C[C@H]3C(=O)N[C@]4(C(=O)NS(=O)(=O)C5(CF)CC5)C[C@H]4/C=C\\CC[C@@H](C)C[C@@H](C)[C@H](NC(=O)OC4(C(F)(F)F)CCOC4)C(=O)N3C2)c2ccccc12", "note": "(stereo partly drawn) [Compound 1066, 3-(trifluoromethyl)tetrahydrofuran-3-yl((2R,6S,7R,9R,13aS,14aR,16aS,Z)-14a-(((1-(fluoromethyl)cyclopropyl)sulfonyl)carbamoyl)-2-((4-methoxyisoquinolin-1-yl)oxy)-7,9-dimethyl-5,16-dioxo-1,2,3,5,6,7,8,9,10,11,13a,14,14a,15,16,16a-hexadecahydrocyclopropa[e]pyrrolo[1,2-a][1,4]diazacyclopentadecin-6-yl)carbamate]", "values": [
      {"measurement": "EC50", "setting": "[1]", "result": "< 5.46", "unit": "nM"},
      {"measurement": "EC50", "setting": "[2]", "result": "< 5.46", "unit": "nM"}
    ]},
    {"smiles": "COc1ccc2c(O[C@@H]3C[C@H]4C(=O)N[C@]5(C(=O)NS(=O)(=O)C6CC6)C[C@H]5/C=C\\CC[C@H](C)C[C@@H](C)[C@H](NC(=O)OC(C)(C)C)C(=O)N4C3)nccc2c1", "note": "[Compound 1067, tert-butyl ((2R,6S,7R,9S,13aS,14aR,16aS,Z)-14a-((cyclopropylsulfonyl)carbamoyl)-2-((6-methoxyisoquinolin-1-yl)oxy)-7,9-dimethyl-5,16-dioxo-1,2,3,5,6,7,8,9,10,11,13a,14,14a,15,16,16a-hexadecahydrocyclopropa[e]pyrrolo[1,2-a][1,4]diazacyclopentadecin-6-yl)carbamate]", "values": [
      {"measurement": "EC50", "setting": "[1]", "result": "< 5.46", "unit": "nM"},
      {"measurement": "EC50", "setting": "[2]", "result": "< 5.46", "unit": "nM"}
    ]},
    {"smiles": "COc1ccc2c(O[C@@H]3C[C@H]4C(=O)N[C@]5(C(=O)NS(=O)(=O)C6CC6)C[C@H]5/C=C\\CC[C@@H](C)C[C@@H](C)[C@H](NC(=O)OC(C)(C)C)C(=O)N4C3)nccc2c1", "note": "[Compound 1068, tert-butyl ((2R,6S,7R,9R,13aS,14aR,16aS,Z)-14a-((cyclopropylsulfonyl)carbamoyl)-2-((6-methoxyisoquinolin-1-yl)oxy)-7,9-dimethyl-5,16-dioxo-1,2,3,5,6,7,8,9,10,11,13a,14,14a,15,16,16a-hexadecahydrocyclopropa[e]pyrrolo[1,2-a][1,4]diazacyclopentadecin-6-yl)carbamate]", "values": [
      {"measurement": "EC50", "setting": "[1]", "result": "< 5.46", "unit": "nM"},
      {"measurement": "EC50", "setting": "[2]", "result": "< 5.46", "unit": "nM"}
    ]},
    {"smiles": "CCCOc1cc2c(Cl)cccc2c(O[C@@H]2C[C@H]3C(=O)N[C@]4(C(=O)NS(=O)(=O)C5CC5)C[C@H]4/C=C\\CC[C@H](C)C[C@@H](C)[C@H](NC(=O)OC(C)(C)C)C(=O)N3C2)n1", "note": "[Compound 1069, tert-butyl ((2R,6S,7R,9S,13aS,14aR,16aS,Z)-2-((5-chloro-3-propoxyisoquinolin-1-yl)oxy)-14a-((cyclopropylsulfonyl)carbamoyl)-7,9-dimethyl-5,16-dioxo-1,2,3,5,6,7,8,9,10,11,13a,14,14a,15,16,16a-hexadecahydrocyclopropa[e]pyrrolo[1,2-a][1,4]diazacyclopentadecin-6-yl)carbamate]", "values": [
      {"measurement": "EC50", "setting": "[1]", "result": "< 5.46", "unit": "nM"},
      {"measurement": "EC50", "setting": "[2]", "result": "< 5.46", "unit": "nM"}
    ]},
    {"smiles": "CCCOc1cc2c(Cl)cccc2c(O[C@@H]2C[C@H]3C(=O)N[C@]4(C(=O)NS(=O)(=O)C5CC5)C[C@H]4/C=C\\CC[C@@H](C)C[C@@H](C)[C@H](NC(=O)OC(C)(C)C)C(=O)N3C2)n1", "note": "[Compound 1070, tert-butyl ((2R,6S,7R,9R,13aS,14aR,16aS,Z)-2-((5-chloro-3-propoxyisoquinolin-1-yl)oxy)-14a-((cyclopropylsulfonyl)carbamoyl)-7,9-dimethyl-5,16-dioxo-1,2,3,5,6,7,8,9,10,11,13a,14,14a,15,16,16a-hexadecahydrocyclopropa[e]pyrrolo[1,2-a][1,4]diazacyclopentadecin-6-yl)carbamate]", "values": [
      {"measurement": "EC50", "setting": "[1]", "result": "< 5.46", "unit": "nM"},
      {"measurement": "EC50", "setting": "[2]", "result": "< 5.46", "unit": "nM"}
    ]}
  ]
}
